Where “and” joins values, the source holds several entries; their conditions need not be identical. Identical values can stand only once. Toxic doses and inconclusive results are not listed.
Tested on: CD2F1 mice, L1210 leukemia ip, survival T/C
Test: NCI In Vivo Anticancer Drug Screen. Data for tumor model L1210 Leukemia (intraperitoneal) in CD2F1 (CDF1) mice
Conditions: higher = longer survival
In short: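 In this screen, transplantable tumors were grown in mice given either the compound or its vehicle. Results were expressed as the treated measurement relative to the control measurement.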

[1] = endpoint: mean survival time, dose: 100.0 mg/kg/injection, schedule: Q01DX001 (ip), vehicle: saline with Tween-80
[2] = endpoint: mean survival time, dose: 25.0 mg/kg/injection, schedule: Q01DX009 (ip), vehicle: saline with Tween-80
[3] = endpoint: mean survival time, dose: 100.0 mg/kg/injection, schedule: Q01DX009 (ip), vehicle: saline with Tween-80
[4] = endpoint: mean survival time, dose: 100.0 mg/kg/injection, schedule: Q04DX003 (ip), vehicle: saline with Tween-80
[5] = endpoint: mean survival time, dose: 400.0 mg/kg/injection, schedule: Q04DX003 (ip), vehicle: saline with Tween-80
[6] = endpoint: mean survival time, dose: 200.0 mg/kg/injection, schedule: Q04DX003 (ip), vehicle: saline with Tween-80
[7] = endpoint: mean survival time, dose: 100.0 mg/kg/injection, schedule: Q04DX002 (ip), vehicle: saline with Tween-80
[8] = endpoint: mean survival time, dose: 200.0 mg/kg/injection, schedule: Q04DX002 (ip), vehicle: saline with Tween-80
[9] = endpoint: mean survival time, dose: 400.0 mg/kg/injection, schedule: Q04DX002 (ip), vehicle: saline with Tween-80
[10] = endpoint: mean survival time, dose: 100.0 mg/kg/injection, schedule: Q01DX001 (ip), vehicle: saline
[11] = endpoint: mean survival time, dose: 200.0 mg/kg/injection, schedule: Q01DX001 (ip), vehicle: saline
[12] = endpoint: mean survival time, dose: 200.0 mg/kg/injection, schedule: Q01DX009 (ip), vehicle: saline with Tween-80
[13] = endpoint: mean survival time, dose: 100.0 mg/kg/injection, schedule: Q04DX003 (ip), vehicle: saline
[14] = endpoint: mean survival time, dose: 200.0 mg/kg/injection, schedule: Q04DX003 (ip), vehicle: saline
[15] = endpoint: mean survival time, dose: 400.0 mg/kg/injection, schedule: Q04DX003 (ip), vehicle: saline

O=NNc1cnccn1
T/C (endpoint: median survival time, dose: 3.12 mg/kg/injection, schedule: Q01DX009 (ip), vehicle: water): 112 % of control | T/C (endpoint: median survival time, dose: 6.25 mg/kg/injection, schedule: Q01DX009 (ip), vehicle: water): 113 % of control and 109 % of control | T/C (endpoint: median survival time, dose: 8.6 mg/kg/injection, schedule: Q01DX009 (ip), vehicle: water): 121 % of control and 107 % of control | T/C (endpoint: median survival time, dose: 11.0 mg/kg/injection, schedule: Q01DX009 (ip), vehicle: water): 121 % of control and 124 % of control | T/C (endpoint: median survival time, dose: 12.5 mg/kg/injection, schedule: Q01DX009 (ip), vehicle: water): 120 % of control and 123 % of control | T/C (endpoint: median survival time, dose: 14.4 mg/kg/injection, schedule: Q01DX009 (ip), vehicle: water): 116 % of control and 112 % of control | T/C (endpoint: median survival time, dose: 24.0 mg/kg/injection, schedule: Q01DX009 (ip), vehicle: water): 124 % of control | T/C (endpoint: median survival time, dose: 38.0 mg/kg/injection, schedule: Q01DX009 (ip), vehicle: water): 221 % of control and 223 % of control | T/C (endpoint: median survival time, dose: 40.0 mg/kg/injection, schedule: Q01DX009 (ip), vehicle: water): 183 % of control | T/C (endpoint: median survival time, dose: 50.0 mg/kg/injection, schedule: Q01DX009 (ip), vehicle: water): 121 % of control | T/C (endpoint: median survival time, dose: 100.0 mg/kg/injection, schedule: Q01DX009 (ip), vehicle: water): 92 % of control

C=Cc1nnnn1C12CC3CC(CC(C3)C1)C2
T/C (endpoint: mean survival time, dose: 50.0 mg/kg/injection, schedule: Q01DX001 (ip), vehicle: saline with Tween-80): 106 % of control | T/C [1]: 112 % of control

Oc1ccc(C=NCCN=Cc2ccc(O)cc2O)c(O)c1
T/C (endpoint: mean survival time, dose: 8.0 mg/kg/injection, schedule: Q01DX009 (ip), vehicle: saline with Tween-80): 98 % of control | T/C (endpoint: mean survival time, dose: 12.0 mg/kg/injection, schedule: Q01DX009 (ip), vehicle: saline with Tween-80): 87 % of control | T/C (endpoint: mean survival time, dose: 18.0 mg/kg/injection, schedule: Q01DX009 (ip), vehicle: saline with Tween-80): 92 % of control | T/C [2]: 114 % of control and 96 % of control | T/C [3]: 87 % of control | T/C [4]: 87 % of control | T/C [5]: 88 % of control

CCCC/C=C/C(O)CC (stereo not given)
T/C [4]: 98 % of control | T/C [6]: 102 % of control | T/C [5]: 96 % of control

CC(N(N=O)c1cccc(Cl)c1)S(=O)(=O)O (stereo not given)
T/C [7]: 101 % of control | T/C [8]: 97 % of control | T/C [9]: 86 % of control

NC(=S)N/N=C/C(=O)c1ccc(Br)cc1
T/C [10]: 102 % of control | T/C [11]: 100 % of control

CC(=O)NC1=CC(=Nc2ccc(N(C)C)cc2)C=CC1=O
T/C (endpoint: mean survival time, dose: 1.25 mg/kg/injection, schedule: Q01DX009 (ip), vehicle: suspension in saline): 95 % of control and 97 % of control | T/C (endpoint: mean survival time, dose: 2.5 mg/kg/injection, schedule: Q01DX009 (ip), vehicle: suspension in saline): 95 % of control and 103 % of control | T/C (endpoint: mean survival time, dose: 5.0 mg/kg/injection, schedule: Q01DX009 (ip), vehicle: suspension in saline): 97 % of control and 101 % of control | T/C (endpoint: mean survival time, dose: 10.0 mg/kg/injection, schedule: Q01DX009 (ip), vehicle: suspension in saline): 90 % of control and 97 % of control

CC(=O)Nc1cccc2ccccc12
T/C [3]: 95 % of control | T/C [12]: 97 % of control

Cc1ccccc1NC(=O)Oc1c(Cl)cc(Cl)c2ccccc12
T/C [7]: 89 % of control | T/C [8]: 93 % of control | T/C [9]: 101 % of control

O=C(O)CC(C(=O)O)C(=O)O
T/C [13]: 100 % of control | T/C [14]: 97 % of control | T/C [15]: 94 % of control

OC1CCCN(c2c3ccccc3nc3ccccc23)C1 (stereo not given)
T/C [7]: 100 % of control | T/C [8]: 92 % of control | T/C [9]: 100 % of control

CCCCS(=O)CC(CO)NC(=O)/C=C/c1c(C)[nH]c(=O)[nH]c1=O (stereo not given)
T/C (endpoint: mean survival time, dose: 0.63 mg/kg/injection, schedule: Q01DX009 (ip), vehicle: water): 115 % of control and 105 % of control | T/C (endpoint: mean survival time, dose: 1.25 mg/kg/injection, schedule: Q01DX009 (ip), vehicle: water): 112 % of control | T/C (endpoint: mean survival time, dose: 2.5 mg/kg/injection, schedule: Q01DX009 (ip), vehicle: water): 118 % of control and 121 % of control | T/C (endpoint: mean survival time, dose: 5.0 mg/kg/injection, schedule: Q01DX009 (ip), vehicle: water): 116 % of control | T/C (endpoint: mean survival time, dose: 10.0 mg/kg/injection, schedule: Q01DX009 (ip), vehicle: water): 98 % of control

C/C(=C\C(=O)c1ccccc1)OB(F)F
T/C [3]: 98 % of control and 100 % of control | T/C [12]: 110 % of control and 100 % of control | T/C (endpoint: mean survival time, dose: 400.0 mg/kg/injection, schedule: Q01DX009 (ip), vehicle: saline with Tween-80): 100 % of control

CC12CCCC1=[N+]1CCCCC1CC2=O (stereo not given)
T/C [13]: 101 % of control | T/C [14]: 101 % of control

CCN(CC)CCCNC1=C(Cl)C(=O)c2ccccc2C1=O
T/C (endpoint: mean survival time, dose: 6.25 mg/kg/injection, schedule: Q01DX009 (ip), vehicle: saline with Tween-80): 100 % of control | T/C (endpoint: mean survival time, dose: 12.5 mg/kg/injection, schedule: Q01DX009 (ip), vehicle: saline with Tween-80): 94 % of control | T/C [2]: 103 % of control

OCC1OC(n2ncc3c2ncn2ccnc32)C(O)C1O (stereo not given)
T/C (endpoint: mean survival time, dose: 12.5 mg/kg/injection, schedule: Q01DX005 (ip), vehicle: water): 101 % of control | T/C (endpoint: mean survival time, dose: 25.0 mg/kg/injection, schedule: Q01DX005 (ip), vehicle: water): 101 % of control | T/C (endpoint: mean survival time, dose: 50.0 mg/kg/injection, schedule: Q01DX005 (ip), vehicle: water): 97 % of control | T/C (endpoint: mean survival time, dose: 100.0 mg/kg/injection, schedule: Q01DX005 (ip), vehicle: water): 97 % of control | T/C (endpoint: mean survival time, dose: 200.0 mg/kg/injection, schedule: Q01DX005 (ip), vehicle: water): 109 % of control

SCc1nc2ccccc2[nH]1
T/C [1]: 96 % of control | T/C (endpoint: mean survival time, dose: 200.0 mg/kg/injection, schedule: Q01DX001 (ip), vehicle: saline with Tween-80): 97 % of control

COc1ccc(C(=O)O)c([N+](=O)[O-])c1
T/C [4]: 98 % of control | T/C [6]: 98 % of control | T/C [5]: 98 % of control

Nc1nc(N)c2c(n1)NCN(CCc1cccc(Cl)c1)C2
T/C (endpoint: mean survival time, dose: 0.75 mg/kg/injection, schedule: Q01DX009 (ip), vehicle: distilled water + Tween-80): 96 % of control | T/C (endpoint: mean survival time, dose: 1.5 mg/kg/injection, schedule: Q01DX009 (ip), vehicle: distilled water + Tween-80): 100 % of control | T/C (endpoint: mean survival time, dose: 3.0 mg/kg/injection, schedule: Q01DX009 (ip), vehicle: distilled water + Tween-80): 98 % of control | T/C (endpoint: mean survival time, dose: 6.0 mg/kg/injection, schedule: Q01DX009 (ip), vehicle: distilled water + Tween-80): 96 % of control | T/C (endpoint: mean survival time, dose: 12.0 mg/kg/injection, schedule: Q01DX009 (ip), vehicle: distilled water + Tween-80): 94 % of control | T/C (endpoint: mean survival time, dose: 24.0 mg/kg/injection, schedule: Q01DX009 (ip), vehicle: distilled water + Tween-80): 94 % of control

CCOC(=O)/C=C/C(=O)O.[Zn+2]
T/C (endpoint: mean survival time, dose: 3.12 mg/kg/injection, schedule: Q04DX003 (ip), vehicle: saline): 100 % of control | T/C (endpoint: mean survival time, dose: 6.25 mg/kg/injection, schedule: Q04DX003 (ip), vehicle: saline): 100 % of control | T/C (endpoint: mean survival time, dose: 12.5 mg/kg/injection, schedule: Q04DX003 (ip), vehicle: saline): 100 % of control

CSc1ccc(N=C/C=C/c2ccccc2)cc1
T/C [4]: 93 % of control | T/C [5]: 91 % of control

C[N+](C)(C)C(Cc1c[nH]c2ccccc12)C(=O)O (stereo not given)
T/C [10]: 91 % of control | T/C [13]: 96 % of control and 100 % of control | T/C [11]: 101 % of control | T/C [14]: 105 % of control and 97 % of control | T/C (endpoint: mean survival time, dose: 400.0 mg/kg/injection, schedule: Q01DX001 (ip), vehicle: saline): 95 % of control | T/C [15]: 94 % of control and 95 % of control

COc1cc(NCCCCN2C(=O)c3ccccc3C2=O)c2ncccc2c1
T/C [4]: 97 % of control | T/C [6]: 102 % of control | T/C [5]: 96 % of control

CC(=O)OC1OC(CO)C(OC(C)=O)C(OC(C)=O)C1OC(C)=O (stereo not given)
T/C (endpoint: mean survival time, dose: 100.0 mg/kg/injection, schedule: Q01DX009 (ip), vehicle: saline sonified): 97 % of control | T/C (endpoint: mean survival time, dose: 200.0 mg/kg/injection, schedule: Q01DX009 (ip), vehicle: saline sonified): 97 % of control | T/C (endpoint: mean survival time, dose: 400.0 mg/kg/injection, schedule: Q01DX009 (ip), vehicle: saline sonified): 98 % of control

O=C(Nc1ccc2c3c(cccc13)C=C2)c1ccccc1
T/C [4]: 96 % of control | T/C [6]: 93 % of control | T/C [5]: 93 % of control

C=CCNc1ccc(OC)cc1
T/C [4]: 101 % of control | T/C [6]: 95 % of control

CC(=O)Nc1cccc(N)c1
T/C [13]: 102 % of control

Cn1c(=O)[nH]c2c(nc(-c3ccc(Cl)cc3)n2C)c1=O
T/C (endpoint: mean survival time, dose: 12.5 mg/kg/injection, schedule: Q01DX005 (ip), vehicle: other): 91 % of control | T/C (endpoint: mean survival time, dose: 25.0 mg/kg/injection, schedule: Q01DX005 (ip), vehicle: other): 100 % of control | T/C (endpoint: mean survival time, dose: 50.0 mg/kg/injection, schedule: Q01DX005 (ip), vehicle: other): 95 % of control | T/C (endpoint: mean survival time, dose: 100.0 mg/kg/injection, schedule: Q01DX005 (ip), vehicle: other): 95 % of control | T/C (endpoint: mean survival time, dose: 200.0 mg/kg/injection, schedule: Q01DX005 (ip), vehicle: other): 100 % of control
